Test system: rat hippocampus
Assay: D-serine on short-term potentiation and long-term depression in rat hippocampal slices
Design: species or system Sprague Dawley rats
Conditions: 1 mM D-serine vs controls
Protocol: To obtain rat hippocampal slices, 4-week-old Sprague Dawley rats (provided by Elevage Janvier, Le Genest-Saint-Isle, France) were euthanized by fast decapitation without anesthesia. The brain was quickly removed and soaked in ice-cold oxygenated buffer: 2 mM KCl, 1.2 mM NaH2PO4, 7 mM MgCl2, 0.5 mM CaCl2), 26 mM NaHCO3, 11 mM glucose, and 250 mM sucrose. Hippocampal slices were prepared at 400 μm thickness with a McILWAIN tissue chopper. […] Slices were continuously perfused with oxygenated aCSF during experiments. The animals were housed and used in accordance with French and European legislation.
Electrophysiological recordings were obtained from a single hippocampal slice placed on the chamber and perfused with aCSF at a constant rate. Extracellular field excitatory postsynaptic potentials (fEPSPs) were recorded in the CA1 stratum radiatum using a glass micropipette filled with aCSF. fEPSPs were evoked by electrical stimulation of Schaffer collaterals/commissural pathway at 0.1 Hz with a glass stimulating electrode placed in the stratum radiatum.
Acute high doses (1 mM) of D-serine induced hippocampal synaptic plasticity (short-term potentiation and long-term depression) compared with controls in the rat hippocampus (FIGS. 1A-1C). Data in FIGS. 1A and 1B were normalized to the 10-minute control period.

Structure (SMILES): N[C@H](CO)C(=O)O [D-serine]
- Depression of EPSP amplitudes (long-term depression) (p=0.0374, unpaired t-test): significantly decreased the depression of EPSP amplitudes
- Potentiation of excitatory postsynaptic potential (EPSP) amplitudes (short-term potentiation) (p=0.0603, unpaired t-test): increased the potentiation of excitatory postsynaptic potential (EPSP) amplitudes, although this change was not statistically significant
